Four molecules from the supplement of paper PMC10307832 can be followed below.

For the first test, the system named is NCI-H1755. The test can be described thus: relative viability (nuclei count vs DMSO), 5 days (fraction); higher = more cells survive. The settings on record: first compound 0.04 µM. The method, boiled down:
(§1)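 Each reported value is a median over duplicate plates. It expresses relative viability: treated-well nuclei count divided by vehicle-well nuclei count. Lung cancer cell lines in 1536-well plates were dosed by pin tool a day after seeding, alone with one drug or with a fixed anchor-drug dose plus five library-drug doses (not always all listed) in √10 steps, and nuclei were counted after 5 days.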
Molecule `COc1cc(N2CCC(C(N)=O)CC2)ccc1Nc1nc(N)c(Cl)c(Nc2ccccc2S(=O)(=O)C(C)C)n1` [HG-5-88-01] + N=C(N)NC(=N)NCCc1ccccc1 [Phenformin] (partner 250 µM) had a relative viability of 0.634.

Turning to `Clc1ccc(Nc2nnc(Cc3ccncc3)c3ccccc23)cc1` [Vatalanib] + COc1cccc2cc(-c3nc([C@H]4CC[C@H](C(=O)O)CC4)n4ncnc(N)c34)[nH]c12 [OSI-027] (partner 0.5 µM), the relative viability was determined as 0.82.

`Clc1ccc(Nc2nnc(Cc3ccncc3)c3ccccc23)cc1` [Vatalanib] + N=C(N)NC(=N)NCCc1ccccc1 [Phenformin] (partner 250 µM) had a relative viability of 0.613.

`Clc1ccc(Nc2nnc(Cc3ccncc3)c3ccccc23)cc1` [Vatalanib] + Nc1nc2[nH]cc(CCc3ccc(C(=O)N[C@@H](CCC(=O)O)C(=O)O)cc3)c2c(=O)[nH]1 [Pemetrexed] (partner 0.2 µM) displayed a relative viability of 0.4.

The test is the same for the next values; noted with them: first compound 0.1265 µM.
On to `COc1cc(N2CCC(C(N)=O)CC2)ccc1Nc1nc(N)c(Cl)c(Nc2ccccc2S(=O)(=O)C(C)C)n1` [HG-5-88-01] + N=C(N)NC(=N)NCCc1ccccc1 [Phenformin] (partner 250 µM), for which the relative viability is 0.612.

Turning to `Clc1ccc(Nc2nnc(Cc3ccncc3)c3ccccc23)cc1` [Vatalanib] + COc1cccc2cc(-c3nc([C@H]4CC[C@H](C(=O)O)CC4)n4ncnc(N)c34)[nH]c12 [OSI-027] (partner 0.5 µM), the relative viability was 0.747.

For the molecule `Clc1ccc(Nc2nnc(Cc3ccncc3)c3ccccc23)cc1` [Vatalanib] + N=C(N)NC(=N)NCCc1ccccc1 [Phenformin] (partner 250 µM), the relative viability came out at 0.577.

The molecule `Clc1ccc(Nc2nnc(Cc3ccncc3)c3ccccc23)cc1` [Vatalanib] + Nc1nc2[nH]cc(CCc3ccc(C(=O)N[C@@H](CCC(=O)O)C(=O)O)cc3)c2c(=O)[nH]1 [Pemetrexed] (partner 0.2 µM) yielded a relative viability of 0.504.

Staying with this test, now noted: first compound 0.4 µM.
As to `COc1cc(N2CCC(C(N)=O)CC2)ccc1Nc1nc(N)c(Cl)c(Nc2ccccc2S(=O)(=O)C(C)C)n1` [HG-5-88-01] + N=C(N)NC(=N)NCCc1ccccc1 [Phenformin] (partner 250 µM), the relative viability was 0.605.

Take `Clc1ccc(Nc2nnc(Cc3ccncc3)c3ccccc23)cc1` [Vatalanib] + COc1cccc2cc(-c3nc([C@H]4CC[C@H](C(=O)O)CC4)n4ncnc(N)c34)[nH]c12 [OSI-027] (partner 0.5 µM): the relative viability came out at 0.705.

Molecule `Clc1ccc(Nc2nnc(Cc3ccncc3)c3ccccc23)cc1` [Vatalanib] + N=C(N)NC(=N)NCCc1ccccc1 [Phenformin] (partner 250 µM) returned a relative viability of 0.661.

Molecule `Clc1ccc(Nc2nnc(Cc3ccncc3)c3ccccc23)cc1` [Vatalanib] + Nc1nc2[nH]cc(CCc3ccc(C(=O)N[C@@H](CCC(=O)O)C(=O)O)cc3)c2c(=O)[nH]1 [Pemetrexed] (partner 0.2 µM) returned a relative viability of 0.461.

The test is the same for the next values; noted with them: first compound 1.265 µM.
Turning to `COc1cc(N2CCC(C(N)=O)CC2)ccc1Nc1nc(N)c(Cl)c(Nc2ccccc2S(=O)(=O)C(C)C)n1` [HG-5-88-01] + N=C(N)NC(=N)NCCc1ccccc1 [Phenformin] (partner 250 µM), the relative viability amounted to 0.616.

In the case of `Clc1ccc(Nc2nnc(Cc3ccncc3)c3ccccc23)cc1` [Vatalanib] + COc1cccc2cc(-c3nc([C@H]4CC[C@H](C(=O)O)CC4)n4ncnc(N)c34)[nH]c12 [OSI-027] (partner 0.5 µM), the relative viability amounted to 0.654.

For the molecule `Clc1ccc(Nc2nnc(Cc3ccncc3)c3ccccc23)cc1` [Vatalanib] + N=C(N)NC(=N)NCCc1ccccc1 [Phenformin] (partner 250 µM), the relative viability is 0.596.

For `Clc1ccc(Nc2nnc(Cc3ccncc3)c3ccccc23)cc1` [Vatalanib] + Nc1nc2[nH]cc(CCc3ccc(C(=O)N[C@@H](CCC(=O)O)C(=O)O)cc3)c2c(=O)[nH]1 [Pemetrexed] (partner 0.2 µM), the relative viability came out at 0.416.

Still in this test, the particulars now being: first compound 4 µM.
In turn, `COc1cc(N2CCC(C(N)=O)CC2)ccc1Nc1nc(N)c(Cl)c(Nc2ccccc2S(=O)(=O)C(C)C)n1` [HG-5-88-01] + N=C(N)NC(=N)NCCc1ccccc1 [Phenformin] (partner 250 µM) had a relative viability of 0.521.

For the molecule `Clc1ccc(Nc2nnc(Cc3ccncc3)c3ccccc23)cc1` [Vatalanib] + COc1cccc2cc(-c3nc([C@H]4CC[C@H](C(=O)O)CC4)n4ncnc(N)c34)[nH]c12 [OSI-027] (partner 0.5 µM), the relative viability amounted to 0.634.

Molecule `Clc1ccc(Nc2nnc(Cc3ccncc3)c3ccccc23)cc1` [Vatalanib] + N=C(N)NC(=N)NCCc1ccccc1 [Phenformin] (partner 250 µM) gave a relative viability of 0.603.

`Clc1ccc(Nc2nnc(Cc3ccncc3)c3ccccc23)cc1` [Vatalanib] + Nc1nc2[nH]cc(CCc3ccc(C(=O)N[C@@H](CCC(=O)O)C(=O)O)cc3)c2c(=O)[nH]1 [Pemetrexed] (partner 0.2 µM) displayed a relative viability of 0.38.

The subject of another test is HCC-366. The description is as above. The settings on record: first compound 0.04 µM. The method, boiled down:
as §1
In the case of `COc1cc(N2CCC(C(N)=O)CC2)ccc1Nc1nc(N)c(Cl)c(Nc2ccccc2S(=O)(=O)C(C)C)n1` [HG-5-88-01] + N=C(N)NC(=N)NCCc1ccccc1 [Phenformin] (partner 250 µM), the relative viability came out at 0.685.

`Clc1ccc(Nc2nnc(Cc3ccncc3)c3ccccc23)cc1` [Vatalanib] + COc1cccc2cc(-c3nc([C@H]4CC[C@H](C(=O)O)CC4)n4ncnc(N)c34)[nH]c12 [OSI-027] (partner 0.5 µM) showed a relative viability of 1.18.

As to `Clc1ccc(Nc2nnc(Cc3ccncc3)c3ccccc23)cc1` [Vatalanib] + N=C(N)NC(=N)NCCc1ccccc1 [Phenformin] (partner 250 µM), the relative viability worked out at 0.597.

As to `Clc1ccc(Nc2nnc(Cc3ccncc3)c3ccccc23)cc1` [Vatalanib] + Nc1nc2[nH]cc(CCc3ccc(C(=O)N[C@@H](CCC(=O)O)C(=O)O)cc3)c2c(=O)[nH]1 [Pemetrexed] (partner 0.2 µM), the relative viability was 0.148.

Staying with this test, now noted: first compound 0.1265 µM.
`COc1cc(N2CCC(C(N)=O)CC2)ccc1Nc1nc(N)c(Cl)c(Nc2ccccc2S(=O)(=O)C(C)C)n1` [HG-5-88-01] + N=C(N)NC(=N)NCCc1ccccc1 [Phenformin] (partner 250 µM): the relative viability came out at 0.634.

`Clc1ccc(Nc2nnc(Cc3ccncc3)c3ccccc23)cc1` [Vatalanib] + COc1cccc2cc(-c3nc([C@H]4CC[C@H](C(=O)O)CC4)n4ncnc(N)c34)[nH]c12 [OSI-027] (partner 0.5 µM) yielded a relative viability of 0.846.

`Clc1ccc(Nc2nnc(Cc3ccncc3)c3ccccc23)cc1` [Vatalanib] + N=C(N)NC(=N)NCCc1ccccc1 [Phenformin] (partner 250 µM) had a relative viability of 0.554.

Take `Clc1ccc(Nc2nnc(Cc3ccncc3)c3ccccc23)cc1` [Vatalanib] + Nc1nc2[nH]cc(CCc3ccc(C(=O)N[C@@H](CCC(=O)O)C(=O)O)cc3)c2c(=O)[nH]1 [Pemetrexed] (partner 0.2 µM): the relative viability stood at 0.133.

The same test, now with this note: first compound 0.4 µM.
For `COc1cc(N2CCC(C(N)=O)CC2)ccc1Nc1nc(N)c(Cl)c(Nc2ccccc2S(=O)(=O)C(C)C)n1` [HG-5-88-01] + N=C(N)NC(=N)NCCc1ccccc1 [Phenformin] (partner 250 µM), the relative viability was 0.581.
